Measurements taken from patent publication US11123335B2, “Method for preventing lung diseases in smokers and non-smokers using antihypertensive drug” (SEOUL NATIONAL UNIVERSITY R & DB FOUNDATION, priority 2015, dated 2021).
Like-named read-outs stand apart in the source and are kept apart here.

How the values were obtained:
lung epithelial cells [1] = assay: Transformation of lung epithelial cells by stress hormones; assay type: cell-based, human; conditions: treatment with the stress hormone alone
Experimental: (§1) Cells (2-3×10^3 cells) were seeded into 96-well plates, treated with a test drug diluted with a medium, and then incubated for 3 days. After incubation, the cells were treated with an MTT solution to have a final concentration of 200-500 μg/ml and incubated for 2 to 4 hours. After discarding the medium, produced formazan was dissolved in DMSO, and then the absorbance at 570 nm was measured. Alternatively, cells were seeded into 12- or 24-well plates, collected after a predetermined time after treatment with a test drug, and then counted using a hemocytometer. 100 to 300 cells were seeded into 6- or 12-well plates and then treated with NNK or NNK and a test drug for 2 to 3 weeks. After 2 to 3 weeks, Colony formation was observed and the colonies were counted after stained staining with crystal violet. Before the experiment, low-melting agar (final concentration of agar: 1%) was diluted with a medium, and then 1 ml of the resulting solution was added and solidified in each 24-well plate, resulting in bottom agar. 2,000 to 5,000 cells were mixed with the low melting agar (final concentration of agar: 0.35-0.4%), 500 μl of the resulting mixture was added onto each bottom agar. After solidification of the agar, the cells were treated with NNK or a test drug, which was diluted with a medium. After 2 to 4 weeks after treatment, colonies were stained with an MTT solution, observed, and then counted. Lung epithelial cells at 90 to 95% confluency were treated with a carcinogen diluted with a growth factor-free medium, or a carcinogen and a test drug. After 2 to 3 weeks, foci formation was observed.

IGF2 [2] = assay: NE-mediated IGF2 secretion in lung epithelial cells; assay type: cell-based, human; conditions: NE-treated lung epithelial cells
Experimental: ELISA for IGF1, IGF2 and NE were performed using commercially available ELISA kits (R&D Systems, DSL or Abnova) according to the manufacturer's instruction.

IGF-1R [3] = assay: NE-mediated IGF-1R activation in lung epithelial cells; assay type: cell-based, human; conditions: NE-treated lung epithelial cells
Experimental: (§2) Cells were washed twice with ice-cold PBS, and then lysed with a modified RIPA buffer [50 mM Tris-HCl (pH 7.4), 150 mM NaCl, 1 mM EDTA, 0.25% sodium deoxycholate, 1% Triton X-100, a protease inhibitor cocktail, 100 mM NaF, 1 mM Na3VO4]. Lysates were centrifuged at 13,000 rpm for 15 to 20 minutes to harvest supernatants, and then the collected proteins were quantified using the BCA method. Equivalent amounts of the proteins were subjected to electrophoresis using 8-15% SDS-PAGE, and then transferred to a PVDF membrane. The membrane was washed with TBST (0.01% Tween-20-containing Tris-buffered saline), and blocked in a blocking buffer (diluted in TBST to contain 5% skim milk) at room temperature for 1 hour. The membrane was incubated with primary antibodies diluted in 3% BSA-containing TBST at 4° C. for 12 hours, and washed with TBST for over 1 hour. The membrane was incubated with secondary antibodies diluted in TBST containing 3% skim milk at room temperature for 1 to 2 hours, and washed with TBST for over 1 hour. The membrane was reacted in an ECL solution, and band visualization was carried out by exposure to an X-ray film.

IGF2 [4] = assay: IGF2 secretion in GFP-IGF2-overexpressing BEAS-2B cells; assay type: cell-based, human
IGF-1R [5] = assay: IGF-1R phosphorylation on change of intracellular Ca2+ (Western blot); assay type: cell-based, human; conditions: HBE/p53i cells
Experimental: as §2

intracellular Ca^2+ = assay: Intracellular Ca2+ production (Fluo-4 AM); assay type: cell-based, human; conditions: NNK treatment
Experimental: Lung epithelial cells were placed on coverslips, treated with an antihypertensive drug or a Ca^2+ chelator, treated with Ca^2+ indicator Fluo-4 AM at 37° C. for 15 minutes, and then treated with NE for 5 minutes. The cells were washed with PBS three times. The slides were mounted with a mounting medium, and images were captured using a Nuance multispectral imaging system (PerkinElmer).
For real-time monitoring of a Ca^2+ change in cells by NNK, the cells were seeded into 96-well cell carrier microplates (PerkinElmer), treated with an antihypertensive drug, treated with Fluo-4 AM at 37° C. for 15 minutes, and then treated with NNK. Fluorescence changes were monitored using an Operetta high content screening system, and result analysis was performed using Harmony software (PerkinElmer).

IGF2 [6] = assay: IGF1 and IGF2 generation in lung epithelial cells (RT-PCR); assay type: cell-based, human; conditions: NNK 1 or 10 μM
Experimental: RNA was isolated from lung epithelial cells by the following method. By adding TRIzol Reagent, the cells were homogenized, treated with chloroform and then centrifuged at 13,000 rpm for 20 minutes. After collection of supernatants, equivalent amounts of isopropanol were added, and then the resulting mixture was centrifuged at 13,000 rpm for 20 minutes to precipitate RNA. The precipitated RNA was washed with 75% ethanol, dried and then dissolved in nuclease-free water. The absorbance at 260 nm was measured, and then the RNA was quantified. RNA having a ratio of A260/A280 nm of 1.8 to 2.0 was used in the experiments. All of the experiments were carried out under RNase-free conditions.
cDNA was synthesized using the PrimeScript™ 1st strand cDNA Synthesis Kit by reacting 2 μg of total RNA with Oligo dT primer (50 μM), a dNTP mixture, and RNase-free dH2O at 65° C. for 5 minutes, reacting a Template RNA primer mixture with 5× PrimeScript Buffer, an RNase inhibitor, PrimeScript RTase, and RNase-free dH2O at 42° C. for 1 hour, and performing heating at 95° C. for 5 minutes to stop the reaction.
After a reaction solution was adjusted to a final volume of 20 μl by adding 2 μl cDNA, 4 μM primer sets, 10 μl EconoTaq® polymerase, and distilled water, polymerase chain reaction (PCR) was carried out using a PCR instrument. […]

IGF-1R [7] = assay: NNK-induced IGF-1R activation in lung epithelial / lung cancer cells (Western blot); assay type: cell-based, human; conditions: for NNK-mediated IGF-1R activation: NNK-treated BEAS-2B cells
Experimental: as §2

IGF-1R [8] = assay: IGF-1R activation in lung tissue of NNK-treated mice; assay type: in vivo, mouse; conditions: A/J mice, NNK 3 μmol
Experimental: as §2

IGF-1R [9] = assay: NNK-induced IGF-1R phosphorylation in IGF-1R or IR-overexpressing fibroblasts (immunoprecipitation); assay type: cell-based; conditions: NNK 10 μM, time-dependent
Experimental: Proteins isolated from cells were incubated with an antibody and protein A/G agarose to isolate a protein binding to the corresponding antibody. The presence of other proteins capable of interacting with a specific protein was determined by Western blot analysis.
as §2

angiotensinogen (AGT) = assay: AGT expression or secretion in lung epithelial cells; assay type: cell-based, human
Experimental: as §2

lung epithelial cells [10] = assay: NE-induced viability and colony formation of lung epithelial cells; assay type: cell-based, human; conditions: NE-treated lung epithelial cells
Experimental: as §1, with “100 to 300 cells were seeded into 6- or 12-well plates and then treated with NNK or NNK and a test drug for 2 to 3 weeks.” left out, “counted.” for “counted. Lung epithelial cells at 90 to 95% confluency were treated with a carcinogen diluted with a growth factor-free medium, or a carcinogen and a test drug. After 2 to 3 weeks, foci formation was observed.”

IGF-1R [11] = assay: Angiotensin-induced activation of IGF-1R signaling in BEAS-2B; assay type: cell-based, human; conditions: angiotensin stimulation
Experimental: as §2

A/J mice = assay: NNK lung carcinogenesis animal model; assay type: in vivo, mouse; conditions: NNK 3 μmol oral twice a week, test drug oral 6 times a week, 20 weeks
Experimental: NNK (3 μmol) was orally administered to A/J mice twice a week, and a test drug was orally administered thereto 6 times a week for a total of 20 weeks. Afterward, the mice were sacrificed, lungs were extracted from the mice, and the produced tumors were counted. Lung paraffin blocks were prepared, four or more tissue sections were prepared at regular intervals, and then stained by H&E staining as described below. Numbers and sizes of the tumors were measured to calculate volumes of the tumors. Paraffin blocks were sliced to have a thickness of 4 μm, placed onto silane-coated slides, and then dried. The dried slide glasses were deparaffinized overnight in a 65° C. dry oven. Afterward, the slide glasses were dipped in xylene for 5 minutes twice. After deparaffinization, the slide glasses were sequentially hydrated with 100%, 95%, 70%, and 50% ethanol, stained with a Harris hematoxylin solution for 1.5 minutes, dipped in a 1% HCl alcohol solution and ammonia, and then counterstained with an eosin solution for 30 seconds. Afterward, the resulting tissue sections were sequentially dehydrated using 95% and 100% ethanol, transparentized with xylene, and then mounted. Images were captured using a microscope.

lung epithelial cells [12] = assay: NNK-induced viability, colony formation and foci formation of lung epithelial cells; assay type: cell-based, human
Experimental: as §1

Molecule: C[C@]12CCC(=O)C=C1CC[C@@H]1[C@@H]2[C@@H](O)C[C@@]2(C)[C@H]1CC[C@]2(O)C(=O)CO [cortisol]
- transformation of lung epithelial cells (viability, colony formation, foci formation) (lung epithelial cells [1]): not by cortisol

Molecule: COC(=O)C1=C(C)NC(C)=C(C(=O)OC)C1c1ccccc1[N+](=O)[O-] [nifedipine]
- NE-mediated IGF2 secretion (IGF2 [2]): inhibited
- NE-mediated IGF-1R activation (IGF-1R [3]): inhibited

Molecule: CNC[C@H](O)c1ccc(O)c(O)c1 [epinephrine]
- transformation of lung epithelial cells (viability, colony formation, foci formation) (lung epithelial cells [1]): induced

Molecule: CC(=O)OCOC(=O)CN(CC(=O)OCOC(C)=O)c1ccccc1OCCOc1ccccc1N(CC(=O)OCOC(C)=O)CC(=O)OCOC(C)=O [BAPTA-AM, 1,2-bis(2-aminophenoxy)ethane-N,N,N′,N′-tetraacetic acid tetrakis(acetoxymethyl ester)]
- NNK-increased IGF2 secretion (IGF2 [4]; GFP-IGF2-overexpressing BEAS-2B, with NNK): inhibited
- IGF-1R phosphorylation (IGF-1R [5]): inhibited
- NE-mediated IGF2 secretion (IGF2 [2]): inhibited
- NE-mediated IGF-1R activation (IGF-1R [3]): inhibited

Molecule: C[C@H](CCC(=O)O)C[C@H](C)C[C@H](C)C(=O)/C=C(\O)[C@H](C)C[C@H](C)C/C=C/[C@@H](C)[C@@H](O)[C@@H](C)[C@@H](O)C[C@@H]1CC[C@@](C)([C@H]2CC[C@@](C)([C@@H](C)O)O2)O1 [ionomycin]
- IGF-1R phosphorylation (IGF-1R [5]): increased

Molecule: CN(CCCC(=O)c1cccnc1)N=O [NNK, 4-(methylnitrosamino)-1-(3-pyridyl)-1-butanone]
- intracellular Ca^2+ (intracellular Ca^2+): increased
- IGF2 generation (IGF2 [6]): increased
- IGF2 secretion (IGF2 [4]; GFP-IGF2-overexpressing BEAS-2B, NNK treatment): increased
- activation of IGF-1R and its downstream signaling mediators Akt, mTOR, ERK (IGF-1R [7]; NHBE, SAEC, HBE/p53i, HB56B, BEAS-2B, increasing NNK time or concentration): increased
- IGF-1R activation in lung cancer cells (IGF-1R [7]; various lung cancer cells with different genotypes, NNK 10 μM): activated
- activation of IGF-1R and its downstream signaling IRS in lung tissue (IGF-1R [8]): increased
- specificity of increase in IGF-1R phosphorylation (IGF-1R vs IR) (IGF-1R [9]): specifically shown for IGF-1R, not for IR
- AGT promoter activation (angiotensinogen (AGT); NNK treatment): activated
- AGT expression and secretion (angiotensinogen (AGT); increase in NNK treatment time and concentration): increased
- AGT expression (angiotensinogen (AGT); lung epithelial cells treated with NNK for 120 days): increased

Molecule: O=C(O)CN(CCOCCOCCN(CC(=O)O)CC(=O)O)CC(=O)O [EGTA, ethylene glycol tetraacetic acid]
- NNK-increased IGF2 secretion (IGF2 [4]): inhibited
- IGF-1R phosphorylation (IGF-1R [5]): inhibited
- NE-mediated IGF2 secretion (IGF2 [2]): inhibited
- NE-mediated IGF-1R activation (IGF-1R [3]): inhibited

Molecule: C[C@]1(O)C[C@@H](c2nc(-c3ccc4ccc(-c5ccccc5)nc4c3)c3c(N)nccn32)C1 [linsitinib]
- NE-induced increase in colony formation of lung epithelial cells (lung epithelial cells [10]): significantly suppressed
- NE-induced increase in viability of lung epithelial cells (lung epithelial cells [10]): significantly suppressed

Molecule: C/C=C(/C)C(=O)O[C@H]1C(C)=C2[C@H]([C@@H]1OC(=O)CCCCCCC)[C@@](C)(OC(C)=O)C[C@H](OC(=O)CCC)[C@@]1(O)[C@H]2OC(=O)[C@@]1(C)O [thapsigargin]
- IGF-1R phosphorylation (IGF-1R [5]): increased

Molecule: angiotensin (DRVYIHPF; Angiotensin-2; UniProt P01019 25-32, looked up) [angiotensin used to stimulate BEAS-2B lung epithelial cells]
- activation of IGF-1R and downstream signaling mediators Akt and ERK (IGF-1R [11]): concentration- and time-dependently activated

Molecule: C[C@H](CS)C(=O)N1CCC[C@H]1C(=O)O [captopril]
- NNK-induced tumorigenesis (A/J mice): significantly suppressed
- NNK-mediated IGF-1R activation (IGF-1R [7]): inhibited
- NNK-induced promotion of cell viability (lung epithelial cells [12]): suppressed
- NNK-induced promotion of colony formation (lung epithelial cells [12]): suppressed
- NNK-induced promotion of foci formation (lung epithelial cells [12]): suppressed

Molecule: CCCCc1nc(Cl)c(CO)n1Cc1ccc(-c2ccccc2-c2nn[nH]n2)cc1 [losartan]
- NNK-induced tumorigenesis (A/J mice): significantly suppressed
- NNK-mediated IGF-1R activation (IGF-1R [7]): inhibited
- NNK-induced promotion of cell viability (lung epithelial cells [12]): suppressed
- NNK-induced promotion of colony formation (lung epithelial cells [12]): suppressed
- NNK-induced promotion of foci formation (lung epithelial cells [12]): suppressed
